Molecules are shown by their SMILES.

Results on 1 compound are retold here after US20230406821A1, “STRIGOLACTONE DERIVATIVES” (Plant Response, Inc., priority 2017, published 2023).

The subject of experiment [1] is S. lycopersicum cv. Micro-Tom. The experiment can be described thus: Stomatal conductance (LI-6400XT) after ABA treatment in tomato. The settings on record: 500 μM in DMSO (0.1%) applied one hour before ABA (100 μM), compared to ABA alone (FIG. 6). It counts as in vivo, Solanum lycopersicum. An excerpt:
FIG. 6 is a boxplot showing the distribution of tomato (S. lycopersicum cv. Micro-Tom) stomatal conductance (mmol/m^2/s) measurements taken via LI-6400XT, plotted by treatment. Plants treated with strigolactone molecule MBS-127 prior to treatment with abscisic acid (ABA) show increased stomatal conductance, as measured by gas exchange with the LI-6400XT, compared to plants treated with ABA alone. Stars indicate significant differences relative to ABA (*: adjusted P<0.05, **: adjusted P<0.01; p-values were adjusted for multiple-hypothesis testing using a Bonferroni correction).
An early response and critical component of abiotic stress response signaling in plants is the production and transport of the phytohormone abscisic acid (ABA) (Kuromori, T., et al., “ABA Transport and Plant Water Stress Responses,” Trends in Plant Science (2018) Vol. 23 (6), pp. 513-522). […]

The test system of experiment [2] is Zea mays Dekalb Hybrid DKC68-26RIB. The experiment can be described thus: Stomatal conductance (LI-6400XT) of sprayed maize plants. Type of experiment: in vivo. The note with it: EC formulation plus 1% Crop Oil Concentrate, foliar spray 2 grams/acre, measured next morning (FIG. 7). An excerpt:
FIG. 7 is a boxplot representing the distribution of stomatal conductance (mmol/m^2/s) measurements taken via LI-6400XT on Zea mays plants treated with EC formulation blank and Crop Oil Concentrate (control; EC) or strigolactone molecule MBS-127, EC formulation blank and Crop Oil Concentrate (MBS-127+EC). […] Letters define significant classes with P<0.05. Points show observations falling outside of the whiskers and have been jittered along the x-axis to avoid overlap.
Water transport is closely intertwined with many vital plant processes, including photosynthesis, translocation, mineral nutrition, growth, and plays a critical role in defining the yield potential of a crop field (Azizian, A., & Sepaskhah, A. R. “Maize response to water, salinity and nitrogen levels: yield-water relation, water-use efficiency and water uptake reduction function,” International Journal of Plant Production (2014) Vol. 8(2), pp. 183-214). The compounds of formulas described herein induce increased leaf conductance in the leaves of intact Z. mays plants (FIG. 7).
In this experiment maize (Zea mays Dekalb Hybrid DKC68-26RIB) plants were grown in a greenhouse in one-gallon pots filled with Sunshine #2 soil-less growing mix. […] Leaves were acclimated within the LI6400XTR sensor head until gas exchange measurements had stabilized for conductance and then the conductance for that leaf determined.

As to `COC(=O)/C=C/OC1C=C(C)C(=O)O1` (centres unmarked) [MBS-127, 3-(4-Methyl-5-oxo-2,5-dihydro-furan-2-yloxy)-acrylic acid methyl ester], the “leaf (stomatal) conductance after ABA” value in experiment [1] was “protect against the drought stress response related reduction in leaf conductance induced by ABA”. The “increase in stomatal conductance compared to the control group” value in experiment [2] is 60%.
